Patent US5110976A, “Insecticidal composition comprising more than one active ingredient” (priority 1985, dated 1992)
Converted amounts (≈) assume the structure as drawn. “Also recorded” adds a separate entry of the source.

Experiments:
Musca domestica [1] = experiment: Filter paper disc contact test (Table 11); assay type: in vivo, house fly (Musca domestica); settings: Musca domestica, 24 h
Outline: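 Stereoisomers in 1:2 oil/acetone were applied to 9 cm filter paper discs, the acetone evaporated, and discs placed in Petri dishes with 15 flies each, three replicates per dose. Mortality was scored at 24 h and corrected by Abbott's formula.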

Tribolium confusum [2] = experiment: Contact test on Tribolium confusum (Table 12); assay type: in vivo
Outline: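 Compound in 1:2 oil/acetone impregnated onto 9 cm filter paper discs; after acetone evaporation, 15 insects per Petri dish exposed by contact, three replicates per dose. Mortality read at 24 hours and corrected by Abbott's formula.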

Tribolium confusum [3] = experiment: Contact test, mixtures of Ia and Ib of various ratio (Table 13); assay type: in vivo, flour beetle (Tribolium confusum); settings: Tribolium confusum, 24 h
Experimental: (§1) The active ingredient is dissolved in a 1:2 mixture of oil and acetone; filter paper discs (Whatman No. 1, diameter 9 cm) are impregnated with the solutions of the corresponding stereoisomers and enantiomer-pairs, respectively. The acetone is allowed to evaporate, whereupon the insects are exposed to filter papers discs placed in Petri-dishes. Three parallels are used on each dose and 15 insects are placed into each Petri-dish. The percental mortality is determined after 24 hours. The corrected percent mortality is calculated by means of the Abbot Formula.
In Table 13 the insecticidal effect of mixtures of enantiomer-pairs Ia and Ib of various ratio is shown on flour beetle (Tribolium confusum). The test method is that disclosed in Example 43.

Colorado potato beetle = experiment: Topical test on Colorado potato beetle (Table 14); assay type: in vivo, Colorado potato beetle (Leptinotersa decemlineata), imago
Experimental: In Table 14 the activity on Colorado potato beetle is shown.
The test materials are dissolved in 2-ethoxyethanol (Cellosolve). One 0.3 μl drop of the solution is applied to the abdominal sterna of the imago. The treatment is carried out by using 2 parallels and 10 insects for each dose. […]

Acanthoscelides obtectus = experiment: Comparative contact test (Table 15); assay type: in vivo, bean weevil (Acanthoscelides obtectus), imago; settings: Acanthoscelides obtectus, 24 h
Experimental: as §1
(§2) The comparative test of Ia, Ib and a 40:60 mixture of Ia:Ib is carried out on bean weevil (Acanthoscelides obtectus), flour-beetle, (Tribolium confusum), house fly (Musca domestica) and sheep maggot fly (Lucillia sericata). The test method described is Example 41.

tribolium confusum [4] = experiment: Comparative contact test (Table 15); assay type: in vivo, flour-beetle (Tribolium confusum), imago; settings: 24 h
Experimental: as §1, §2

Musca domestica [5] = experiment: Comparative contact test (Table 15); assay type: in vivo, house fly (Musca domestica), imago; settings: 24 h
Experimental: as §1, §2

Lucillia sericata = experiment: Comparative contact test (Table 15); assay type: in vivo, sheep maggot fly (Lucillia sericata), imago; design: key: % mortality after 24 h, Abbott-corrected; settings: 1440 min
Experimental: as §1, §2

T. confusum [6] = experiment: Activity as function of time, toxic symptoms (Table 16); assay type: in vivo, flour beetle (T. confusum), imagos
Outline: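 T. confusum imagos exposed in Petri dishes to filter-paper discs impregnated with isomer solutions in 1:2 oil/acetone, acetone evaporated; 3 replicates of 15 insects per dose. Insects lying on their backs counted at successive time points, expressed as percent.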

T. confusum [7] = experiment: Contact test with piperonyl butoxide (Table 17); assay type: in vivo, flour-beetle (T. confusum), imagos; settings: Tribolium confusum, 24 h, PBO, where added, 0.5 mg/disc
Experimental: as §1
Imagos of flour-beetle (T. confusum) are treated in an analogous manner to Example 41. As synergist piperonyl butoxide is used in a dose of 0.5 mg/disc.

Hyphantria cunea = experiment: Topical test on fall webworm (Table 18); assay type: in vivo, fall wetworm (Hyphantria cunea), L7-L8 larvae; settings: Hyphantria cunea, topical, 24 h
Experimental: The active ingredients are dissolved in 2-ethoxy-ethanol and the solutions are applied in the form of 0.2 μl droplets onto the back of fall wetworm (Hyphantria cunea) of L7 -L8 larvae stage. The treated worms are placed on strawberry leaves in Petri-dishes. The test is carried out by using […], 2 parallels and 10 insects for each dose. The killed worms are counted after 24 hours and the percental mortality rate is calculated.

Tetranychus urticae = experiment: Potter Tower spray on mite-infested leaves (Table 19); assay type: in vivo, mites (Tetranychus urticae); settings: Tetranychus urticae, 24 h, mortality after 24 hours; read-out: approx. LD50
Experimental: Leaves already infested with mites (Tetranychus urticae) were sprayed under Potter Tower. Mortality after 24 hours on the treated leaves was compared with the control.

CC1(C)[C@H](C(=O)O[C@H](C#N)c2cccc(Oc3ccccc3)c2)[C@@H]1C=C(Cl)Cl (relative stereo) [Ia]
mortality at 40 µg/disc (Musca domestica [1]; 0.04 mg/disc): 44%
mortality at 110 µg/disc (Musca domestica [1]; 0.11 mg/disc): 84%
mortality at 330 µg/disc (Musca domestica [1]; 0.33 mg/disc): 100%
mortality at 1000 µg/disc (Musca domestica [1]; 1.00 mg/disc): 100%
mortality at 3000 µg/disc (Musca domestica [1]; 3.00 mg/disc): 100%
mortality at 330 µg/disc (Tribolium confusum [2]; Tribolium confusum, 24 h, 0.33 mg/disc): 65%
mortality at 1000 µg/disc (Tribolium confusum [2]; Tribolium confusum, 24 h, 1.00 mg/disc): 94%
mortality at 3000 µg/disc (Tribolium confusum [2]; Tribolium confusum, 24 h, 3.00 mg/disc): 100%
synergism between the members of the enantiomer-pair (Tribolium confusum [2]; in vivo): does not take place; also recorded: no similar synergism takes place
mortality at 60 µg/disc (Tribolium confusum [3]; 0.06 mg/disc): 14%
mortality at 250 µg/disc (Tribolium confusum [3]; 0.25 mg/disc): 54%
mortality at 20 µg/disc (Tribolium confusum [3]; 0.02 mg/disc): 0%
mortality at 1000 µg/disc (Tribolium confusum [3]; 1.00 mg/disc): 100%
mortality at 0.05 µg/beetle (Colorado potato beetle; Leptinotarsa decemlineata, topical, read-out: 24 hours' mortality %, 0.05 μg/beetle): 50%
mortality at 0.1 µg/beetle (Colorado potato beetle; Leptinotarsa decemlineata, topical, read-out: 24 hours' mortality %, 0.10 μg/beetle): 55%
mortality at 0.2 µg/beetle (Colorado potato beetle; Leptinotarsa decemlineata, topical, read-out: 24 hours' mortality %, 0.20 μg/beetle): 75%
mortality at 0.4 µg/beetle (Colorado potato beetle; Leptinotarsa decemlineata, topical, read-out: 24 hours' mortality %, 0.40 μg/beetle): 80%
comparative activity (Colorado potato beetle; imago of Colorado potato beetle): more active than Ib
mortality at 20 µg/disc (Acanthoscelides obtectus; 0.02 mg/disc): 10%
mortality at 70 µg/disc (Acanthoscelides obtectus; 0.07 mg/disc): 37%
mortality at 220 µg/disc (Acanthoscelides obtectus; 0.22 mg/disc): 63%
mortality at 670 µg/disc (Acanthoscelides obtectus; 0.67 mg/disc): 95%
mortality at 2000 µg/disc (Acanthoscelides obtectus; 2.0 mg/disc): 100%
mortality at 6000 µg/disc (Acanthoscelides obtectus; 6.0 mg/disc): 100%
mortality at 20 µg/disc (tribolium confusum [4]; 0.02 mg/disc): 0%
mortality at 70 µg/disc (tribolium confusum [4]; 0.07 mg/disc): 18%
mortality at 220 µg/disc (tribolium confusum [4]; 0.22 mg/disc): 51%
mortality at 670 µg/disc (tribolium confusum [4]; 0.67 mg/disc): 100%
mortality at 2000 µg/disc (tribolium confusum [4]; 2.0 mg/disc): 100%
mortality at 6000 µg/disc (tribolium confusum [4]; 6.0 mg/disc): 100%
mortality at 20 µg/disc (Musca domestica [5]; 0.02 mg/disc): 36%
mortality at 70 µg/disc (Musca domestica [5]; 0.07 mg/disc): 63%
mortality at 220 µg/disc (Musca domestica [5]; 0.22 mg/disc): 88%
mortality at 670 µg/disc (Musca domestica [5]; 0.67 mg/disc): 100%
mortality at 2000 µg/disc (Musca domestica [5]; 2.0 mg/disc): 100%
mortality at 6000 µg/disc (Musca domestica [5]; 6.0 mg/disc): 100%
mortality (Lucillia sericata; 0.02 mg/disc): 0
mortality (Lucillia sericata; 0.07 mg/disc): 30
mortality (Lucillia sericata; 0.22 mg/disc): 29
mortality (Lucillia sericata; 0.67 mg/disc): 57
mortality (Lucillia sericata; 2.0 mg/disc): 60
mortality (Lucillia sericata; 6.0 mg/disc): 65
% of insects showing toxic symptoms (T. confusum [6]; 30 minutes): 0%
% of insects showing toxic symptoms (T. confusum [6]; 30 minutes, 0.33 mg/disc): 0%
% of insects showing toxic symptoms (T. confusum [6]; 30 minutes, 1.00 mg/disc): 0%
% of insects showing toxic symptoms (T. confusum [6]; 30 minutes, 3.00 mg/disc): 33%
% of insects showing toxic symptoms (T. confusum [6]; 60 minutes): 0%
% of insects showing toxic symptoms (T. confusum [6]; 60 minutes, 0.33 mg/disc): 0%
% of insects showing toxic symptoms (T. confusum [6]; 60 minutes, 1.00 mg/disc): 16%
% of insects showing toxic symptoms (T. confusum [6]; 60 minutes, 3.00 mg/disc): 88%
% of insects showing toxic symptoms (T. confusum [6]; 120 minutes): 0%
% of insects showing toxic symptoms (T. confusum [6]; 120 minutes, 0.33 mg/disc): 14%
% of insects showing toxic symptoms (T. confusum [6]; 120 minutes, 1.00 mg/disc): 66%
% of insects showing toxic symptoms (T. confusum [6]; 120 minutes, 3.00 mg/disc): 100%
% of insects showing toxic symptoms (T. confusum [6]; 180 minutes): 10%
% of insects showing toxic symptoms (T. confusum [6]; 180 minutes, 0.33 mg/disc): 49%
% of insects showing toxic symptoms (T. confusum [6]; 180 minutes, 1.00 mg/disc): 100%
% of insects showing toxic symptoms (T. confusum [6]; 180 minutes, 3.00 mg/disc): 100%
mortality at 25 µg/disc (T. confusum [7]; 0.025 mg/disc): 0%
mortality at 50 µg/disc (T. confusum [7]; 0.05 mg/disc): 0%
mortality at 100 µg/disc (T. confusum [7]; 0.1 mg/disc): 12%
mortality at 200 µg/disc (T. confusum [7]; 0.2 mg/disc): 53%
mortality at 400 µg/disc (T. confusum [7]; 0.4 mg/disc): 96%
mortality at 0.023 µg/disc (Hyphantria cunea; 0.023 (μg/disc)): 40%
mortality at 0.047 µg/disc (Hyphantria cunea; 0.047 (μg/disc)): 60%
mortality at 0.094 µg/disc (Hyphantria cunea; 0.094 (μg/disc)): 65%
mortality at 0.188 µg/disc (Hyphantria cunea; 0.188 (μg/disc)): 80%
mortality at 0.375 µg/disc (Hyphantria cunea; 0.375 (μg/disc)): 90%
LC50 (Tetranychus urticae): ~0.056 mg/L (≈ 0.135 µM)
